Molecules are shown by their SMILES. Bounds are passed on as bounds.

The experiment concerns the target T1, human ENPP1 (Homo sapiens, UniProt P22413).
T1 construct: purchased Biovendor AP-18-081; host or cells: HEK293
T1 sequence (P22413 1-925): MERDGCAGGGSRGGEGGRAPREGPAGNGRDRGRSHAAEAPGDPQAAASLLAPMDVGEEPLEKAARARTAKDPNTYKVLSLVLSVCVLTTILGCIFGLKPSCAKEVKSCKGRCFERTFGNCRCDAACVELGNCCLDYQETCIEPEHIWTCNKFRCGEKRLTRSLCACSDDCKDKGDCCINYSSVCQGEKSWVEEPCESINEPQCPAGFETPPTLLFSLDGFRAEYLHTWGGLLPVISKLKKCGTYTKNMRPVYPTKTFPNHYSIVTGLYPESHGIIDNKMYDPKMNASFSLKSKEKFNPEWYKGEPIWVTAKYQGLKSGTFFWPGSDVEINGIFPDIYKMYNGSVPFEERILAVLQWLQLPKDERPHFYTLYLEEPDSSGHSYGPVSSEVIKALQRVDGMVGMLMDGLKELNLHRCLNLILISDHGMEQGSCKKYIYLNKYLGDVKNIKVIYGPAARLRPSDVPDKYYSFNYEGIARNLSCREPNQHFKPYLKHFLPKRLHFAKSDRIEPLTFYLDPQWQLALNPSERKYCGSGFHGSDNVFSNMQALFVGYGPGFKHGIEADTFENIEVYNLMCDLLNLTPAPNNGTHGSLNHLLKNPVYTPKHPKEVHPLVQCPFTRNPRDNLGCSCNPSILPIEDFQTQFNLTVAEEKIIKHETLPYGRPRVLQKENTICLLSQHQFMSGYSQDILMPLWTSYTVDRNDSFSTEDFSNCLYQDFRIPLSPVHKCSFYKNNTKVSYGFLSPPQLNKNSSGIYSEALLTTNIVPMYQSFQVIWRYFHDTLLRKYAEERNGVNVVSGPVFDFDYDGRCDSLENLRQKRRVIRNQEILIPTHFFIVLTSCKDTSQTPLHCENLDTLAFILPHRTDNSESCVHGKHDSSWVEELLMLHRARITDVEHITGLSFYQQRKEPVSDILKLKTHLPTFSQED
The experiment is described as follows: In vitro enzyme activity assay: human ENPP1 enzymatic assay (cGAMP), AMP-Glo. The note with it: substrate cGAMP, AMP-Glo detection. The format is biochemical. The protocol: AMP-Glo Assay Kit (PROMEGA, V5012), ENPP-1-IN-1 (MCE, HY-129490), white opaque 384-well plate (Perkin Elmer, 6008289), Mammalian (non-canonical) CDN, cyclic[g(2′,5′)pA(3′,5′)p](referred to as cGAMP hereinafter, Invivogen, tlrl-nacga23-5), ENPP1 Protein Human HEK293 (Biovendor, AP-18-081).
• 1) Preparing 1× reaction buffer (Tris buffer), 1× enzyme buffer, and 1× substrate buffer; • 2) diluting the compounds using Echo550 and supplementing with DMSO; • 3) pre-loading 2.5 μL of enzyme solution on a reaction plate (adding 2.5 μL of buffer instead as negative control) and incubating it at room temperature; • 4) adding 2.5 μL of substrate solution to the system and incubating it at room temperature; • 5) adding 5 μL of AMP-Glo solution that has been allowed to cooled down to room temperature, centrifuging and reacting at room temperature, • 6) adding 10 μL of AMP Detection solution at room temperature, centrifuging and reacting at room temperature; and • 7) reading the plate using EnVision.
In turn, `C[S@@](=N)(=O)c1ccc(Cn2c(=O)[nH]c3cnc4c5c(ccc4c32)OCO5)cc1` (single isomer, unassigned) [Compound 43-P1] displayed an IC50 of 10 to 50 nM.
On to `C[S@](=N)(=O)c1ccc(Cn2c(=O)[nH]c3cnc4c5c(ccc4c32)OCO5)cc1` (single isomer, unassigned) [Compound 43-P2], for which the 50% inhibitory concentration (IC50) was less than 10 nM.
In the case of `O=c1[nH]c2cnc3c4c(ccc3c2n1Cc1c(F)cc(P(=O)(O)O)cc1F)OCO4` [Compound 2, (3,5-difluoro-4-((7-oxo-6,7-dihydro-8H-[1,3]dioxolo[4,5-h]imidazo[4,5-c]quinolin-8-yl)methyl)phenyl)phosphonic acid] it was less than 10 nM.
`Cn1c(=O)n(Cc2ccc(P(=O)(O)O)c(F)c2)c2c3ccc4c(c3ncc21)OCO4` [Compound 3, (2-fluoro-4-((6-methyl-7-oxo-6,7-dihydro-8H-[1,3]dioxolo[4,5-h]imidazo[4,5-c]quinolin-8-yl)methyl)phenyl)phosphonic acid] had an IC50 of less than 10 nM.
`O=c1[nH]c2cnc3c4c(ccc3c2n1Cc1ccc(P(=O)(O)O)cc1F)OCO4` [Compound 4, (3-fluoro-4-((7-oxo-6,7-dihydro-8H-[1,3]dioxolo[4,5-h]imidazo[4,5-c]quinolin-8-yl)methyl)phenyl)phosphonic acid] returned an IC50 of less than 10 nM.
The molecule `CC(c1ccc(P(=O)(O)O)c(F)c1)n1c(=O)[nH]c2cnc3c4c(ccc3c21)OCO4` (stereo not shown) [Compound 5-P1] came in with a 50% inhibitory concentration (IC50) of less than 10 nM.
`CC(c1ccc(P(=O)(O)O)c(F)c1)n1c(=O)[nH]c2cnc3c4c(ccc3c21)OCO4` (stereo not shown) [Compound 5-P2]: the IC50 was less than 10 nM.
`CCn1c(=O)n(Cc2ccc(P(=O)(O)O)c(F)c2)c2c3ccc4c(c3ncc21)OCO4` [Compound 6, (4-((6-ethyl-7-oxo-6,7-dihydro-8H-[1,3]dioxolo[4,5-h]imidazo[4,5-c]quinolin-8-yl)methyl)-2-fluorophenyl)phosphonic acid] gave an IC50 of less than 10 nM.
In turn, `O=c1n(CC(F)F)c2cnc3c4c(ccc3c2n1Cc1ccc(P(=O)(O)O)c(F)c1)OCO4` [Compound 7] registered an IC50 of less than 10 nM.
Molecule `O=c1[nH]c2cnc3c4c(ccc3c2n1Cc1ccc(P(=O)(O)O)c2ccccc12)OCO4` [Compound 8] displayed an IC50 of 10 to 50 nM.
With `O=c1[nH]c2cnc3c4c(ccc3c2n1Cc1ccc(P(=O)(O)O)c(F)c1F)OCO4` [Compound 9], the IC50 was less than 10 nM.
The molecule `CC(C)n1c(=O)n(Cc2ccc(P(=O)(O)O)c(F)c2)c2c3ccc4c(c3ncc21)OCO4` [Compound 10] registered an IC50 of less than 10 nM.
As to `O=c1n(Cc2ccc(P(=O)(O)O)c(F)c2)c2c3ccc4c(c3ncc2n1C1CC1)OCO4` [Compound 11], the IC50 was less than 10 nM.
In turn, `O=c1[nH]c2cnc3c4c(ccc3c2n1Cc1c(F)cc(P(=O)(O)O)c(F)c1F)OCO4` [Compound 12] displayed a 50% inhibitory concentration (IC50) of less than 10 nM.
Molecule `O=c1[nH]c2cnc3c4c(ccc3c2n1Cc1cc(F)c(P(=O)(O)O)cc1Cl)OCO4` [Compound 13] yielded an IC50 of less than 10 nM.
Molecule `Cc1cc(P(=O)(O)O)c(F)cc1Cn1c(=O)[nH]c2cnc3c4c(ccc3c21)OCO4` [Compound 14] came in with an IC50 of less than 10 nM.
Then `O=c1[nH]c2cnc3c4c(ccc3c2n1Cc1ccc(P(=O)(O)O)c(Cl)c1)OCO4` [Compound 15], with less than 10 nM; and `O=c1[nH]c2cnc3c4c(ccc3c2n1Cc1ccc(P(=O)(O)O)c(Br)c1)OCO4` [Compound 16], with less than 10 nM.
Then `O=c1[nH]c2cnc3c4c(ccc3c2n1Cc1cc(F)c(P(=O)(O)O)cc1F)OCO4` [Compound 17], with less than 10 nM; and `CC(C)Cn1c(=O)n(Cc2ccc(P(=O)(O)O)c(F)c2)c2c3ccc4c(c3ncc21)OCO4` [Compound 18], with less than 10 nM; and `O=c1n(CC2CCC2)c2cnc3c4c(ccc3c2n1Cc1ccc(P(=O)(O)O)c(F)c1)OCO4` [Compound 19], with less than 10 nM.
`O=c1n(CC2CCCC2)c2cnc3c4c(ccc3c2n1Cc1ccc(P(=O)(O)O)c(F)c1)OCO4` [Compound 20]: the IC50 was less than 10 nM.
In the case of `O=c1n(CC2CCC(F)(F)CC2)c2cnc3c4c(ccc3c2n1Cc1ccc(P(=O)(O)O)c(F)c1)OCO4` [Compound 21] it was less than 10 nM; in that of `CC(C)(C)Cn1c(=O)n(Cc2ccc(P(=O)(O)O)c(F)c2)c2c3ccc4c(c3ncc21)OCO4` [Compound 22], less than 10 nM.
`O=c1n(CC(F)(F)F)c2cnc3c4c(ccc3c2n1Cc1ccc(P(=O)(O)O)c(F)c1)OCO4` [Compound 23]: the IC50 is less than 10 nM.
In the case of `O=c1n(CCC(F)(F)F)c2cnc3c4c(ccc3c2n1Cc1ccc(P(=O)(O)O)c(F)c1)OCO4` [Compound 24] it was less than 10 nM; in that of `O=c1n(CCC2CCOCC2)c2cnc3c4c(ccc3c2n1Cc1ccc(P(=O)(O)O)c(F)c1)OCO4` [Compound 25], less than 10 nM.
`O=c1n(CCCF)c2cnc3c4c(ccc3c2n1Cc1ccc(P(=O)(O)O)c(F)c1)OCO4` [Compound 26] gave an IC50 of less than 10 nM.
In the case of `O=c1n(Cc2ccc(P(=O)(O)O)c(F)c2)c2c3ccc4c(c3ncc2n1C1CCCC1)OCO4` [Compound 27] it was less than 10 nM; in that of `O=c1n(Cc2ccc(P(=O)(O)O)c(F)c2)c2c3ccc4c(c3ncc2n1C1CCOCC1)OCO4` [Compound 28], less than 10 nM; in that of `O=c1n(CCCOC2CCOCC2)c2cnc3c4c(ccc3c2n1Cc1ccc(P(=O)(O)O)c(F)c1)OCO4` [Compound 29], less than 10 nM.
Regarding `CC(C)CCn1c(=O)n(Cc2ccc(P(=O)(O)O)c(F)c2)c2c3ccc4c(c3ncc21)OCO4` [Compound 30], the IC50 is less than 10 nM.
As to `CS(=O)(=O)CCn1c(=O)n(Cc2ccc(P(=O)(O)O)c(F)c2)c2c3ccc4c(c3ncc21)OCO4` [Compound 31], the IC50 is less than 10 nM.
Regarding `O=c1n(CCCN2CCOCC2)c2cnc3c4c(ccc3c2n1Cc1ccc(P(=O)(O)O)c(F)c1)OCO4` [Compound 32], the IC50 was less than 10 nM.
Take `CN(C)CCn1c(=O)n(Cc2ccc(P(=O)(O)O)c(F)c2)c2c3ccc4c(c3ncc21)OCO4` [Compound 33]: the IC50 was less than 10 nM.
Then `CN(C)CCCn1c(=O)n(Cc2ccc(P(=O)(O)O)c(F)c2)c2c3ccc4c(c3ncc21)OCO4` [Compound 34], with less than 10 nM; and `NS(=O)(=O)c1cc(F)c(Cn2c(=O)[nH]c3cnc4c5c(ccc4c32)OCO5)c(F)c1` [Compound 35], with less than 10 nM; and `NS(=O)(=O)c1ccc(Cn2c(=O)[nH]c3cnc4c5c(ccc4c32)OCO5)cc1` [Compound 36], with less than 10 nM.
On to `NS(=O)(=O)c1ccc(Cn2c(=O)[nH]c3cnc4c5c(ccc4c32)OCO5)cc1F` [Compound 37], for which the IC50 was less than 10 nM.
For the molecule `NS(=O)(=O)c1ccc(Cn2c(=O)[nH]c3cnc4c5c(ccc4c32)OCO5)c(F)c1F` [Compound 38], the IC50 was less than 10 nM.
`NS(=O)(=O)c1ccc(Cn2c(=O)[nH]c3cnc4c5c(ccc4c32)OCO5)c(F)c1` [Compound 39] showed an IC50 of less than 10 nM.
In turn, `NS(=O)(=O)c1ccc(Cn2c(=O)[nH]c3cnc4c5c(ccc4c32)OCO5)nc1` [Compound 40] had an IC50 of less than 10 nM.
`CCn1c(=O)n(Cc2c(F)cc(S(N)(=O)=O)cc2F)c2c3ccc4c(c3ncc21)OCO4` [Compound 41] had an IC50 of less than 10 nM.
For `CS(=N)(=O)c1ccc(Cn2c(=O)[nH]c3cnc4c5c(ccc4c32)OCO5)cc1F` (stereo not shown) [Compound 42], the half-maximal inhibitory concentration (IC50) is less than 10 nM.
Take `Cn1c(=O)n(Cc2ccc(S(C)(=N)=O)cc2)c2c3ccc4c(c3ncc21)OCO4` (stereo not shown) [Compound 44]: the IC50 was less than 10 nM.
Then `CCn1c(=O)n(Cc2ccc(S(C)(=N)=O)cc2)c2c3ccc4c(c3ncc21)OCO4` (stereo not shown) [Compound 45], with less than 10 nM; and `O=c1[nH]c2cnc3c4c(ccc3c2n1Cc1c(F)cc(B(O)O)cc1F)OCO4` [Compound 46], with less than 10 nM.
In the case of `Cn1c(=O)n(Cc2c(F)cc(B(O)O)cc2F)c2c3ccc4c(c3ncc21)OCO4` [Compound 47] it was less than 10 nM; in that of `O=c1[nH]c2cnc3c4c(ccc3c2n1Cc1ccc(B(O)O)cc1)OCO4` [Compound 48], less than 10 nM.

The term IC50 denotes the concentration that gives 50% inhibition.

Source of the values: US20250206763A1, “ENPP1 INHIBITOR” (SHANGHAI QILU PHARMACEUTICAL RESEARCH AND DEVELOPMENT …, priority 2022, published 2025).
